Results published in paper PMC12959137 (Antimicrobial Agents and Chemotherapy, 2026).

Biological target: KPC-2 (Klebsiella pneumoniae, UniProt Q9F663)
Assay type: biochemical
Details: read-out: KM for nitrocefin hydrolysis (used in Morrison fit)
Method: Initial velocities (v₀) were determined by fitting the reaction progress curves by linear regression. These velocities were then plotted against buffer concentrations and analyzed using the Morrison equation to determine the inhibition constant (Ki) ([33]). […] All data analysis and curve fitting were performed using GraphPad Prism (version 10.3.1).

Sequence of KPC-2 (Q9F663 25-293 limits assumed): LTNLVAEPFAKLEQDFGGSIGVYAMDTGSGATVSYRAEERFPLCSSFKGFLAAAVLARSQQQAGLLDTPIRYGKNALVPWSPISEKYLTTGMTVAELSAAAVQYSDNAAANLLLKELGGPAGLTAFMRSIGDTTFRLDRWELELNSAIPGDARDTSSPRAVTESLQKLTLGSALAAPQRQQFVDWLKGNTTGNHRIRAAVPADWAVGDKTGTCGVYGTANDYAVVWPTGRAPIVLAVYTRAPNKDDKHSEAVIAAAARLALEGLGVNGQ

O=C(Cc1cccs1)N[C@@H]1C(=O)N2C(C(=O)O)=C(/C=C/c3ccc([N+](=O)[O-])cc3[N+](=O)[O-])CS[C@H]12 [nitrocefin]
Km: 45 µM
